The data set addresses ATP-dependent translocase ABCB1 (Homo sapiens, UniProt P08183). The data set can be described thus: TP_TRANSPORTER: transepithelial transport in Caco-2 cells. It counts as functional, cell-based.

These results are taken from ChEMBL document CHEMBL2073779, “pH-dependent bidirectional transport of weakly basic drugs across Caco-2 monolayers: implications for drug-drug interactions” (Pharm Res, 2003).

Each structure is given as a SMILES string.

Sequence of ATP-dependent translocase ABCB1 (P08183 whole entry): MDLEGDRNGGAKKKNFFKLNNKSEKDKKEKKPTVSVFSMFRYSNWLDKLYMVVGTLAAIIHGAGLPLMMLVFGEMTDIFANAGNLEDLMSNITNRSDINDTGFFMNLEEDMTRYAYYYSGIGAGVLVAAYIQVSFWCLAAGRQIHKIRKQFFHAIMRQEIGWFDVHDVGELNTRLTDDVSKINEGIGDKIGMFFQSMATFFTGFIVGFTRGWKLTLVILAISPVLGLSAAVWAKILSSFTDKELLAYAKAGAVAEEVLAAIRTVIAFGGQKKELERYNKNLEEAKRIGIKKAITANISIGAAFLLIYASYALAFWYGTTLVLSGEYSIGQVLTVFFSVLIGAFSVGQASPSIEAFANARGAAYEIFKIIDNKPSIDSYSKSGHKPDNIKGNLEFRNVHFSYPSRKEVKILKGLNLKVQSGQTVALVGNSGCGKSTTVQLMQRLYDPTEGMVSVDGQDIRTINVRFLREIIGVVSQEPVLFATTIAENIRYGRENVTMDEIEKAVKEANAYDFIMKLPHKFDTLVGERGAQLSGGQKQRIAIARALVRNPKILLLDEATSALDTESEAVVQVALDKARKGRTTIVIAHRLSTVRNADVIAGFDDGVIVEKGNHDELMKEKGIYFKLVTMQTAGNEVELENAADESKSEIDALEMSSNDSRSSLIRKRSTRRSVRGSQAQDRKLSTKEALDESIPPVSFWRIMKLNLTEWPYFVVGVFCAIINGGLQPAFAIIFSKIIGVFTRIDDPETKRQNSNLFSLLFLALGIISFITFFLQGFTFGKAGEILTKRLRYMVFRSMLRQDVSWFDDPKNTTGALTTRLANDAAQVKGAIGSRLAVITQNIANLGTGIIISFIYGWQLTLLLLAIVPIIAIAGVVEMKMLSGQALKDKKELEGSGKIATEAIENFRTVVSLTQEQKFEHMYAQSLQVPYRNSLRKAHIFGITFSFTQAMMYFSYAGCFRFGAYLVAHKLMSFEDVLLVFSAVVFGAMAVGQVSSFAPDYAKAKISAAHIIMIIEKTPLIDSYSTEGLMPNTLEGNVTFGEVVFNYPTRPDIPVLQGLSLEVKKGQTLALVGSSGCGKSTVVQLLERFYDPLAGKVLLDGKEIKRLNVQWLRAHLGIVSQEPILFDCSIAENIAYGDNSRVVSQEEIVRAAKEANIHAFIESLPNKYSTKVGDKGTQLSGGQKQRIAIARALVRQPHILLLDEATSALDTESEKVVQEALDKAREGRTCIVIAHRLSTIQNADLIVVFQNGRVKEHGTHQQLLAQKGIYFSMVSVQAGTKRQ

On to `C[C@H]1O[C@@H](O[C@H]2[C@@H](O)C[C@H](O[C@H]3[C@@H](O)C[C@H](O[C@H]4CC[C@@]5(C)[C@H](CC[C@@H]6[C@@H]5C[C@@H](O)[C@]5(C)[C@@H](C7=CC(=O)OC7)CC[C@]65O)C4)O[C@@H]3C)O[C@@H]2C)C[C@H](O)[C@@H]1O` [DIGOXIN], for which the Activity result is “substrate [+]”. As for `COCCc1ccc(OCC(O)CNC(C)C)cc1` (configuration not stated) [METOPROLOL], the Activity entry was “is not a substrate [-]”.
